Legend:
GSCs = test: cell cycle arrest phenotype (rounded cells) in GFP-expressing GSCs after shRNA; format: cell-based, human; conditions: FIG. 2
Source text: Arrows point to rounded cells, which are those showing a cell arrest phenotype.
In addition, the GSC and NSC containing two of the shRNA sequences targeting PHF5α, KIF11 (positive control), and a random clone (negative control) were examined by immunofluorescence analysis using DAPI staining and a fluorescent microscope. Cells that appeared balled up are ones that suffered cell cycle arrest, while elongated cells were unaffected in their proliferation. […] In contrast, inhibition of PHF5α produced a striking phenotype of a G2/M mitotic arrest in GSCs, but not in NSCs (data not shown).
Ryzinski et al. (Cytogenet. […] Res. 121:232, 2008) identified PHF5α as a bridge protein capable of connecting members of the U2 snRNP, especially U2AF1 to RNA helicases, especially DDX1. To test whether, out of the possible known or unknown roles in a cell, the splicing functions of PHF5α is an important activity contributing to GSC survival and proliferation, shRNA knockdown similar to Example 2 was performed against each member of this bridging interaction—U2AF1 and DDX1.

PHF5α = test: immunostained western blot of PHF5α protein after shRNA; format: cell-based, human; conditions: GSCs (G166, 0827, 0131) and NSCs, relative to shCtrl; FIG. 1B
Source text: (B) is an immunostained western blot showing PHF5α protein levels are reduced in GSCs (G166, 0827, 0131) and NSCs when exposed to a short hairpin RNA (shRNA) that reduces PHF5α RNA levels (shPHF5α-133 (SEQ ID NO.:11), shPHF5α-402 (SEQ ID NO.:10), shPHF5α-861 (SEQ ID NO.:9)) relative to the levels of PHF5α in cells treated with a non-silencing control shRNA (shCtrl).
(§1) To verify the robustness and reproducibility of PHF5α loss in GSC growth inhibition, the normal NSC control cells and a panel of five GSC primary cell cultures were infected with viruses encoding three different shRNA sequences targeting PHF5α (shPHF5α-133 (SEQ ID NO.:11), shPHF5α-402 (SEQ ID NO.:10), and shPHF5α-861 (SEQ ID NO.:9)), as well as a positive control (shKIF11-555 (SEQ ID NO.:19); blocking kinesin family member 11 (KIF11) prevents centrosome migration, which arrests cells in mitosis) and negative control (shCtrl). Cultures were selected with puromycin, plated at about 1000 cells per well in 96-well plates, and incubated for one week at 37° C./5% CO2 before assaying cell viability using the alamarBlue® assay (Invitrogen, Gand Island, N.Y.). Briefly, resazurin (a blue compound that is non-toxic, cell permeable compound and essentially non-fluorescent) is added to the cell cultures, which is reduced to resorufin upon entering metabolically active cells (in contrast, non-viable or damaged cells cannot do this effectively). Resorufin is a bright red fluorescent molecule that functions as a colorimetric indicator. In addition, all three shRNA viruses were internally validated to knock down PHF5α at both the RNA and protein levels (data not shown).

[1] = system: GSC primary cell cultures and normal NSC control cells; test: alamarBlue cell viability after shRNA knockdown; format: cell-based, human; conditions: shRNA virus, puromycin selection, one week, FIG. 1A
Source text: as §1

Cells expressing Ras = test: sensitivity of Ras-expressing cells to drugs with reported splicing inhibition; format: cell-based; conditions: FIG. 11
[2] = system: GSCs relative to NSCs (G166 or CB660 cells); test: cell viability of GSC or NSC cells after SSA / SudC1 (AlamarBlue); format: cell-based, human; conditions: dilution series; FIGS. 3B and 3C
Source text: (§2) Along with high MPM-2 staining, and little or no phosphorylated BubR1, this is consistent with a pre-anaphase arrest in which the mitotic checkpoint has not been triggered.

H2B-GFP expressing GSCs = test: metaphase capture assay with MG132; format: cell-based, human; conditions: overnight exposure to drug, then MG132 for 2 hours
Procedure: The GSC-specific G2/M arrest was characterized by performing metaphase capture assays in H2B-GFP expressing GSCs treated with proteasome inhibitor MG132, which arrests mitotic cells at metaphase, blocking APCCdc20-dependent degradation of Cyclin B (Lampson and Kapoor 2005). After overnight exposure to SudC1 or SSA, cells were treated with MG132 for 2 hours. […] It was also observed that the viability loss in drug-treated GSC cultures results from the death of previously arrested mitotic cells and not interphase GSCs, identifying the cancer-specific mitotic arrest as a causative event in cancer cell death due to splicing inhibition.

GSC-H2B-GFP cells = test: live cell imaging of drug-treated cells; format: cell-based, human; conditions: for timing of mitoses: GSCs, first hours after drug treatment; for mitotic arrest in live cell imaging: data not shown
U2 snRNP subunit SF3b = U2 snRNP subunit SF3b (Homo sapiens, UniProt O75533+Q7RTV0); conditions: Kaida et al. 2007; Corrionero et al. 2011; cited from earlier work
GSCs and NSCs = test: cell cycle arrest after SSA or SudC1; format: cell-based, human; conditions: at doses within the efficacy window; data not shown
Source text: as §2

[3] = system: MEF cells with the addition of oncogenic Ras signaling; test: viability after sudemycin treatment; format: cell-based, mouse
Source text: Approximately 88% of clinical glioblastoma tumors harbor mutations that activate signaling through the Ras/PI3-kinase pathways (The Cancer Genome Atlas Research Network, Nature 455:1061, 2008). Since PHF5α inhibition is detrimental to a range of glioblastoma cell cultures, but not to the normal NSC from which most glioblastomas are thought to arise, transformation from a normal cell to a cancer cell was examined to determine whether PHF5α dependence was acquired during this process. Accordingly, Ras signaling was activated in normal IMR90 fibroblast cells by infecting with a retrovirus encoding the ElA and Ras oncogenes (EIA was included because Ras alone would be lethal in these cells). These partially transformed fibroblasts were probed for their response to shPHF5α inhibition and to a U2 snRNP splicing inhibitor (sudemycin C1). Viral shRNA knockdown was performed as described in the above examples. For drug response assays, cells were plated in 96-well plates and contacted with a range of sudemycin C1 concentrations (0.08, 0.16, 0.31, 0.63, 1.25, 2.50, 5.0 or 10.0 μM) for a period of 24 hours. Media was then removed and replaced with fresh media, then cell viability was measured 72 hours after drug exposure using the alamarBlue® assay (Invitrogen). […]

[4] = system: normal IMR90 fibroblast cells; test: drug response assay, alamarBlue viability; format: cell-based, human; conditions: 0.08-10.0 μM for 24 hours, viability at 72 hours; FIG. 9A
Source text: (§3) Approximately 88% of clinical glioblastoma tumors harbor mutations that activate signaling through the Ras/PI3-kinase pathways (The Cancer Genome Atlas Research Network, Nature 455:1061, 2008). Since PHF5α inhibition is detrimental to a range of glioblastoma cell cultures, but not to the normal NSC from which most glioblastomas are thought to arise, transformation from a normal cell to a cancer cell was examined to determine whether PHF5α dependence was acquired during this process. Accordingly, Ras signaling was activated in normal IMR90 fibroblast cells by infecting with a retrovirus encoding the ElA and Ras oncogenes (EIA was included because Ras alone would be lethal in these cells). These partially transformed fibroblasts were probed for their response to shPHF5α inhibition and to a U2 snRNP splicing inhibitor (sudemycin C1). Viral shRNA knockdown was performed as described in the above examples. For drug response assays, cells were plated in 96-well plates and contacted with a range of sudemycin C1 concentrations (0.08, 0.16, 0.31, 0.63, 1.25, 2.50, 5.0 or 10.0 μM) for a period of 24 hours. Media was then removed and replaced with fresh media, then cell viability was measured 72 hours after drug exposure using the alamarBlue® assay (Invitrogen).

IMR90+E1A/Ras = test: drug response assay, alamarBlue viability; format: cell-based, human; conditions: 0.08-10.0 μM for 24 hours, viability at 72 hours; FIG. 9A
Source text: as §3

RNA splicing = conditions: Lagisetti et al. 2008, 2009; Fan et al. 2011; cited from earlier work
[5] = system: RNA splicing in GSCs and NSCs; test: splicing defects on gels after SudC1; format: cell-based, human; conditions: GSCs versus NSCs; FIG. 16
Source text: This example also describes the effects of two candidate small molecule inhibitors of the U2 snRNP complex, Spliceostatin A (SSA) and Sudemycin C1 (SudC1). […] (Kaida et al. 2007; Corrionero et al. 2011). […] It was reasoned that if the most relevant GSC-specific function of PHF5A is its function in the splicing activity of the U2 snRNP, then these drugs should show a similar pattern of effects on RNA splicing in GSCs and NSCs. This was indeed the case. […] In addition, after PHF5A knockdown, multiple constitutive exons of the well characterized RTK/Ras signaling effector RAF1 and the cancer-associated deacetylase HDAC6 were skipped GSCs but not in normal NSCs.

[6] = system: Non-transformed MEF cells; test: viability after sudemycin treatment; format: cell-based, mouse

Chain of PHF5α (Q7RTV0 whole entry): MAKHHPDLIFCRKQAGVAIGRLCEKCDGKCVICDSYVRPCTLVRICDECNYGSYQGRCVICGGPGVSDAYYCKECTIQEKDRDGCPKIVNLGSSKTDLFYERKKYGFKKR

DDX1-301: shRNA targeting DDX1, ACACGGTGTTCCTTATGTTATA, SEQ ID NO. 18 (listed as DNA, chemistry not fully specified)
cell cycle arrest (GSCs): undergone cell cycle arrest

shPHF5α-861: shRNA targeting PHF5α, CGCCCACTAGTCTCATATTATT, SEQ ID NO. 9 (listed as DNA, chemistry not fully specified)
PHF5α protein levels (PHF5α): reduced | proliferation of GSCs compared to NSCs [1]: greater reduction in proliferation of GSCs compared to normal neural stem cells | cell cycle arrest (GSCs): undergone cell cycle arrest

[H]/N=C(\N/C(=N/[H])NCCCCCCNC(=N)NC(=N)Nc1ccc(Cl)cc1)Nc1ccc(Cl)cc1 [chlorhexidine]
differential sensitivity of cells expressing Ras (Cells expressing Ras): not differentially sensitive

Fc1ccc(C(c2ccc(F)cc2)N2CCN(C/C=C/c3ccccc3)CC2)cc1 [flunarizine]
differential sensitivity of cells expressing Ras (Cells expressing Ras): not differentially sensitive

shU2AF1-100: shRNA targeting U2AF1, CGGCTGTGATTGACTTGAATAA, SEQ ID NO. 1 (listed as DNA, chemistry not fully specified)
cell cycle arrest (GSCs): undergone cell cycle arrest

CCN1/C(=C/C(C)=O)Sc2ccc(OC)cc21 [TG003]
differential sensitivity of cells expressing Ras (Cells expressing Ras): not differentially sensitive

shPHF5α-402: shRNA targeting PHF5α, AGCATTTACTTGTTTAACACTT, SEQ ID NO. 10 (listed as DNA, chemistry not fully specified)
PHF5α protein levels (PHF5α): reduced | proliferation of GSCs compared to NSCs [1]: greater reduction in proliferation of GSCs compared to normal neural stem cells

shPHF5α-133: shRNA targeting PHF5α, ACTCAACCAAGATCTTCTAAAA, SEQ ID NO. 11 (listed as DNA, chemistry not fully specified)
PHF5α protein levels (PHF5α): reduced | proliferation of GSCs compared to NSCs [1]: greater reduction in proliferation of GSCs compared to normal neural stem cells

Clc1ccccc1C(c1ccccc1)(c1ccccc1)n1ccnc1 [Clotrimazole]
differential sensitivity of cells expressing Ras (Cells expressing Ras): not differentially sensitive

Pladienolide B
differential sensitivity of cells expressing Ras (Cells expressing Ras): differentially sensitive

CO[C@]1(C)C[C@@]2(CO2)[C@H](O)[C@@H](/C=C/C(C)=C/C[C@@H]2O[C@H](C)[C@H](NC(=O)/C=C\[C@H](C)OC(C)=O)C[C@@H]2C)O1 [SSA, Spliceostatin A]
differential sensitivity of cells expressing Ras (Cells expressing Ras): differentially sensitive | viability loss in GSCs relative to NSCs [2]: greater dose-dependent viability loss in GSCs relative to NSCs | metaphase arrest with MG132 (H2B-GFP expressing GSCs): unable to properly arrest | timing of mitoses (GSC-H2B-GFP cells): did not affect the timing of mitoses for several hours after drug treatment | mitotic arrest in live cell imaging (GSC-H2B-GFP cells): mitotic arrest pre-metaphase | binding and inhibition of SF3b (U2 snRNP subunit SF3b): binds to and inhibits | cell cycle arrest (GSCs and NSCs): characteristic cell cycle arrest in GSCs but not NSCs

Sudemycin C1 [SudC1]
differential sensitivity of cells expressing Ras (Cells expressing Ras): differentially sensitive | sensitivity of cell viability [3]: greatly sensitized | viability loss in GSCs relative to NSCs [2]: greater dose-dependent viability loss in GSCs relative to NSCs | sensitivity of cell viability [4]: relatively resistant | sensitivity of cell viability (IMR90+E1A/Ras): greatly sensitized | modulation of RNA splicing (RNA splicing): modulates RNA splicing | metaphase arrest with MG132 (H2B-GFP expressing GSCs): unable to properly arrest | timing of mitoses (GSC-H2B-GFP cells): did not affect the timing of mitoses for several hours after drug treatment | mitotic arrest in live cell imaging (GSC-H2B-GFP cells): mitotic arrest pre-metaphase | splicing defects [5]: dose-dependent GSC-specific splicing defects | cell cycle arrest (GSCs and NSCs): characteristic cell cycle arrest in GSCs but not NSCs | sensitivity of cell viability [6]: relatively resistant

Reference: patent US20150025017A1, “COMPOSITIONS AND METHODS FOR TREATING CANCER” (Fred Hutchinson Cancer Research Center, priority 2012, published 2015)
